Columns and labels:
[1] = cited from earlier work
[2] = solubility of metaldehyde in methyl iodide, alcohols and their mixtures; format: physicochemical; settings: for recrystallization temperature: bottom products composition
Method: That is, distillation in the presence of alcohols has made it possible to prevent clogging.
It has been confirmed that in the composition of bottom products from the distillation column in the continuous production process for acetic acid, the recrystallization temperature is 18° C. at a methyl iodide/methanol weight ratio of 3/1, 12° C. at 5/4, 6° C. at 3/4, and -9° C. or lower at 1/2. The preferred methyl iodide/methanol weight ratio, which depends on a thermal insulation state, is 5/4 to 1/2.

For `CC=O` [acetaldehyde], the miscibility with water [1] is listed as “well miscible”.
For `CC1OC(C)OC(C)OC(C)O1` (stereo not drawn) [metaldehyde], the dissolution in alcohols ([2]; alcohols such as methanol, ethanol, and propanol) was “dissolved”, the recrystallization temperature ([2]; methyl iodide/methanol weight ratio 1/2) was at most -9 °C and the recrystallization temperature ([2]; methyl iodide/methanol weight ratio 3/1) was 18 °C. The recrystallization temperature ([2]; methyl iodide/methanol weight ratio 3/4) was 6 °C, the recrystallization temperature ([2]; methyl iodide/methanol weight ratio 5/4) was 12 °C and the “order of increasing solubilities” value ([2]; methyl iodide, acetaldehyde, methanol, mixed solution of methyl iodide and methanol) was “methyl iodide<<acetaldehyde=methanol<mixed solution of methyl iodide and methanol”. The solubility ([2]; particularly to methyl iodide) was “low solubility”.
In the case of `CI` [methyl iodide], the miscibility with water [1] is given as “scarcely miscible”.

Source: patent publication US5625095A, “Process for producing high purity acetic acid” (Daicel Chemical Industries, Ltd., priority 1994, dated 1997)
